Experimental findings from the supplement of paper PMC6315032 are described below.

Molecules are shown by their SMILES. Where only a bound is given, the exact number is not on record here.

Holding throughout (experiment): apparent dissociation constant (pKDapp, Kinobeads competition, Cheng-Prusoff corrected) (-log10 M); higher = tighter binding
One experiment addresses ROCK2 (UniProt O75116). Particulars: affinity matrix / lysate: Kinobeads, mixed HEK293/K-562/placenta lysate.
The target in the next experiment is CHEK2 (UniProt O96017). Particulars: affinity matrix / lysate: Kinobeads, mixed HEK293/K-562/placenta lysate.
For the next experiment, the target named is T1, PIK3CD (UniProt O00329).
T1 sequence (whole entry): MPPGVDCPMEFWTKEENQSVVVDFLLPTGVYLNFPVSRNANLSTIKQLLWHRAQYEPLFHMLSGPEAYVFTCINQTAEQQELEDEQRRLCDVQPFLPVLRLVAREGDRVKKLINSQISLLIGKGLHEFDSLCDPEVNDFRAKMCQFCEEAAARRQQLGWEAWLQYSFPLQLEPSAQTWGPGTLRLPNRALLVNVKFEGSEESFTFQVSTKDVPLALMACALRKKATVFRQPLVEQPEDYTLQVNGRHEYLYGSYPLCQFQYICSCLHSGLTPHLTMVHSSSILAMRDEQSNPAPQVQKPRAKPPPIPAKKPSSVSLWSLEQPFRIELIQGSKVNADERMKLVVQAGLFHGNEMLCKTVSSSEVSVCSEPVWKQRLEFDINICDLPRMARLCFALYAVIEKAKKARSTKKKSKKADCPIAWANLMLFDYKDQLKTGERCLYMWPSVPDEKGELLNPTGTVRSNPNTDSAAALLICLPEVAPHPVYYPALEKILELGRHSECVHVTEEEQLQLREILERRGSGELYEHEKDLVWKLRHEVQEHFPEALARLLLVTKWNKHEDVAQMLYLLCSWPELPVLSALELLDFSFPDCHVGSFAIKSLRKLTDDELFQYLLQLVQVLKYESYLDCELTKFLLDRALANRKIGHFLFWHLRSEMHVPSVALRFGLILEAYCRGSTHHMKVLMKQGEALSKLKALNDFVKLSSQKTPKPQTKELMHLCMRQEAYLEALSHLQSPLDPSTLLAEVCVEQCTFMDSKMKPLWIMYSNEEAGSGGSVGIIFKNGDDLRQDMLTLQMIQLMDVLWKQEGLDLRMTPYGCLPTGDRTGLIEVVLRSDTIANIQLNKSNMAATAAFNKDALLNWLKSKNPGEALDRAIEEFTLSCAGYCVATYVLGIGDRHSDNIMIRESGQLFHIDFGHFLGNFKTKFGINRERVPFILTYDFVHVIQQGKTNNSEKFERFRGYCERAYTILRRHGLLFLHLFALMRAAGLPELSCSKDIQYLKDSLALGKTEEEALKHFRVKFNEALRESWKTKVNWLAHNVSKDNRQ

For the next experiment, the target named is YES1 (UniProt P07947). Particulars: affinity matrix / lysate: Kinobeads, mixed HEK293/K-562/placenta lysate.
In the next experiment the target is PIM2 (UniProt Q9P1W9). Particulars: affinity matrix / lysate: Kinobeads, mixed HEK293/K-562/placenta lysate.
A further experiment has as its target PDGFRB (UniProt P09619). Particulars: affinity matrix / lysate: Kinobeads, mixed HEK293/K-562/placenta lysate.
For a further experiment, the target named is IGF1R (UniProt P08069). Particulars: affinity matrix / lysate: Kinobeads, mixed HEK293/K-562/placenta lysate.
Another experiment concerns the target SRC (UniProt P12931). Particulars: affinity matrix / lysate: Kinobeads, mixed HEK293/K-562/placenta lysate.
A further experiment concerns the target NUAK1 (UniProt O60285). Particulars: affinity matrix / lysate: Kinobeads, mixed HEK293/K-562/placenta lysate.
For another experiment, the target named is CDK9 (UniProt P50750). Particulars: affinity matrix / lysate: Kinobeads, mixed HEK293/K-562/placenta lysate.
A further experiment concerns the target ADCK4 (UniProt Q96D53). Particulars: affinity matrix / lysate: Kinobeads, mixed HEK293/K-562/placenta lysate.
For the next experiment, the target named is CSNK1G1 (UniProt Q9HCP0). Particulars: affinity matrix / lysate: Kinobeads, mixed HEK293/K-562/placenta lysate.
The next experiment concerns the target DYRK1B (UniProt Q9Y463). Particulars: affinity matrix / lysate: Kinobeads, mixed HEK293/K-562/placenta lysate.
The target in another experiment is SIK1 (UniProt P57059). Particulars: affinity matrix / lysate: Kinobeads, mixed HEK293/K-562/placenta lysate.
A further experiment addresses MAPK15 (UniProt Q8TD08). Particulars: affinity matrix / lysate: Kinobeads, mixed HEK293/K-562/placenta lysate.
Another experiment addresses CAMK1 (UniProt Q14012). Particulars: affinity matrix / lysate: Kinobeads, mixed HEK293/K-562/placenta lysate.
A further experiment has as its target PRKACA (UniProt P17612). Particulars: affinity matrix / lysate: Kinobeads, mixed HEK293/K-562/placenta lysate.
A further experiment deals with SGK1 (UniProt O00141). Particulars: affinity matrix / lysate: Kinobeads, mixed HEK293/K-562/placenta lysate.
Another experiment concerns the target EIF2AK2 (UniProt P19525). Particulars: affinity matrix / lysate: Kinobeads, mixed HEK293/K-562/placenta lysate.
The target in a further experiment is ACVRL1 (UniProt P37023). Particulars: affinity matrix / lysate: Kinobeads, mixed HEK293/K-562/placenta lysate.
A further experiment deals with EIF2AK3 (UniProt Q9NZJ5). Particulars: affinity matrix / lysate: Kinobeads, mixed HEK293/K-562/placenta lysate.
The target in another experiment is RNASEL (UniProt Q05823). Particulars: affinity matrix / lysate: Kinobeads, mixed HEK293/K-562/placenta lysate.
The next experiment has as its target MAP3K10 (UniProt Q02779). Particulars: affinity matrix / lysate: Kinobeads, mixed HEK293/K-562/placenta lysate.
The mark [1] stands for this setting: affinity matrix / lysate: Lipid Kinobeads, mixed HeLa/Jurkat/K-562 lysate.

Chain of YES1 (P07947 whole entry, looked up): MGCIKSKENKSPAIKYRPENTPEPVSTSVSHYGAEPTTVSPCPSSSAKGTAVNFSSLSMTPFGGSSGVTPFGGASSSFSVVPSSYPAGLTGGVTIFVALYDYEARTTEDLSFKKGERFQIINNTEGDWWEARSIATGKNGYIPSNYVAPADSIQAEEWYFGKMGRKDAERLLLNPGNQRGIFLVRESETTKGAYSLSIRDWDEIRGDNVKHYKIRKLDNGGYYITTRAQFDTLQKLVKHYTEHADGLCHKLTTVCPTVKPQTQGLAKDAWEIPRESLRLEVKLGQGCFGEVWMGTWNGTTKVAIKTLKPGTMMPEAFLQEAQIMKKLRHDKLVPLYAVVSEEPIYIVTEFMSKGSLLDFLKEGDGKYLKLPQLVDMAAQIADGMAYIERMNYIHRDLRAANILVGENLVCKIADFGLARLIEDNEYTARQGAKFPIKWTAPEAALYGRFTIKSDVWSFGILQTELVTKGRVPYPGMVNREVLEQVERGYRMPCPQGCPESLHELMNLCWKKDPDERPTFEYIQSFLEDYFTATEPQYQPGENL
Chain of NUAK1 (O60285 whole entry): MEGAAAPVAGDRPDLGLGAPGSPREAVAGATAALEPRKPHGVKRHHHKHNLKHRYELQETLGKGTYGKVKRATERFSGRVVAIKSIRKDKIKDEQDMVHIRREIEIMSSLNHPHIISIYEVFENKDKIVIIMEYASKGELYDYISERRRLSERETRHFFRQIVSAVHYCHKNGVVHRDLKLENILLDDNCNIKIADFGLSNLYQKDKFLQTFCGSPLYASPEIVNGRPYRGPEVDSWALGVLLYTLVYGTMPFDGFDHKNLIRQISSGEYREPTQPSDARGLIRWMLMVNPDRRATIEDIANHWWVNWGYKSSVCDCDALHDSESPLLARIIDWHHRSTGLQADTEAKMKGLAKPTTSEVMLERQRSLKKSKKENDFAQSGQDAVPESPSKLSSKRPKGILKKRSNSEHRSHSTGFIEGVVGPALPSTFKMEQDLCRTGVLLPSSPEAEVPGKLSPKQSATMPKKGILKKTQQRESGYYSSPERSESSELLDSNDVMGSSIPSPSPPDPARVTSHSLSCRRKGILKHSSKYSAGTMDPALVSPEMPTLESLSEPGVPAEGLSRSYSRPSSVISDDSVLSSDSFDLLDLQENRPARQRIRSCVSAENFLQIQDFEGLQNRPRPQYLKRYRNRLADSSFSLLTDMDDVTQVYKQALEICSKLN
Chain of PDGFRB (P09619 whole entry): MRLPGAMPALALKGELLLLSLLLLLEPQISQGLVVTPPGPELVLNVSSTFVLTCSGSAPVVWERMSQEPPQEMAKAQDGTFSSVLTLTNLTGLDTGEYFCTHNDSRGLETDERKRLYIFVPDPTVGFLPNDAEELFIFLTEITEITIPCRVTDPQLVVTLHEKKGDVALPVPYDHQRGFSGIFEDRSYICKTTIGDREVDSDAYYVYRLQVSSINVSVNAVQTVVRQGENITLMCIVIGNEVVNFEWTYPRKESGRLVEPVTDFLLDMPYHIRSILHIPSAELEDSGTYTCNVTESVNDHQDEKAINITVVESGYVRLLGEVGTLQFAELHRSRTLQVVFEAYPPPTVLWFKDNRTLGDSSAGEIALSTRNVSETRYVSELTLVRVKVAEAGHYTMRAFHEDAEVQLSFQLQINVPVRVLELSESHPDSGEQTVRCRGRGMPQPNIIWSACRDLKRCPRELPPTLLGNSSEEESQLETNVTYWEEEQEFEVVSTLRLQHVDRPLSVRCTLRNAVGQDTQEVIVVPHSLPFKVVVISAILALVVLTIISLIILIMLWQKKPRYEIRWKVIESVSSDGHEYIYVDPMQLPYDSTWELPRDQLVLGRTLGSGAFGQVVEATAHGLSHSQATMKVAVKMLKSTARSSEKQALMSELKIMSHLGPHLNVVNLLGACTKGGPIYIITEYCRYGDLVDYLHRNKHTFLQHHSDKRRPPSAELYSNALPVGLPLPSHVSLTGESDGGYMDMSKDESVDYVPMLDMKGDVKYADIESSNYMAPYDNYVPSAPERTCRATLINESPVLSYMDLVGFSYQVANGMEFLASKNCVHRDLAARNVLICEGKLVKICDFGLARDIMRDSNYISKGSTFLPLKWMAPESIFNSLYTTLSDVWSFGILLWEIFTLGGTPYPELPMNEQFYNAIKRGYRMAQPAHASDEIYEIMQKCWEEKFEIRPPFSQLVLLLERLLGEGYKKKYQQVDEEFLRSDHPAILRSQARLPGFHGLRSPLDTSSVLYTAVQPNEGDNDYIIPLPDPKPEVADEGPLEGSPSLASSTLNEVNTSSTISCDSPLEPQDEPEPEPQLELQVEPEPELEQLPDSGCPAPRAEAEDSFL
Chain of CHEK2 (O96017 whole entry): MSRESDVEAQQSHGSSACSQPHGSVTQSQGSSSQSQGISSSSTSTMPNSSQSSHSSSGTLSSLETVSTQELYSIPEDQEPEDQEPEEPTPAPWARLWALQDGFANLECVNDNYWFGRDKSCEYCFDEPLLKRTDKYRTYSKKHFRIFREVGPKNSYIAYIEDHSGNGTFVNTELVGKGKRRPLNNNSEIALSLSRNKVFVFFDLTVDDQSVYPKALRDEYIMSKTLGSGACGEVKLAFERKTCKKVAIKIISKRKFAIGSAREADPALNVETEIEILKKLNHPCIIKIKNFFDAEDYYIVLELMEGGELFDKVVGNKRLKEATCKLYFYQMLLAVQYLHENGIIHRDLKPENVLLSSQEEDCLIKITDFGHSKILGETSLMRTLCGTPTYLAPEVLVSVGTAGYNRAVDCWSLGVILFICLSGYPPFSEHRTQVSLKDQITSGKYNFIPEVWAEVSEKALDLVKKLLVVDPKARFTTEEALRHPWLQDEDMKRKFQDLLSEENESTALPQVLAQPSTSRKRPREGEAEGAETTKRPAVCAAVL
Chain of PIM2 (Q9P1W9 whole entry, looked up): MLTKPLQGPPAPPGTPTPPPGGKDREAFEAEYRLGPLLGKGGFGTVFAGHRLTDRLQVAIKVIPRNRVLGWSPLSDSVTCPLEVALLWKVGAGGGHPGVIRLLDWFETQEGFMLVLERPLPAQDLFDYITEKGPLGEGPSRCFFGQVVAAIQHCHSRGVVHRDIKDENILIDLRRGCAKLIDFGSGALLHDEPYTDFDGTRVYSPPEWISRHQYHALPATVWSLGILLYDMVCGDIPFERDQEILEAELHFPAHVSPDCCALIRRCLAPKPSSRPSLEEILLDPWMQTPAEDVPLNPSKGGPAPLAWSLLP
Chain of SRC (P12931 whole entry, looked up): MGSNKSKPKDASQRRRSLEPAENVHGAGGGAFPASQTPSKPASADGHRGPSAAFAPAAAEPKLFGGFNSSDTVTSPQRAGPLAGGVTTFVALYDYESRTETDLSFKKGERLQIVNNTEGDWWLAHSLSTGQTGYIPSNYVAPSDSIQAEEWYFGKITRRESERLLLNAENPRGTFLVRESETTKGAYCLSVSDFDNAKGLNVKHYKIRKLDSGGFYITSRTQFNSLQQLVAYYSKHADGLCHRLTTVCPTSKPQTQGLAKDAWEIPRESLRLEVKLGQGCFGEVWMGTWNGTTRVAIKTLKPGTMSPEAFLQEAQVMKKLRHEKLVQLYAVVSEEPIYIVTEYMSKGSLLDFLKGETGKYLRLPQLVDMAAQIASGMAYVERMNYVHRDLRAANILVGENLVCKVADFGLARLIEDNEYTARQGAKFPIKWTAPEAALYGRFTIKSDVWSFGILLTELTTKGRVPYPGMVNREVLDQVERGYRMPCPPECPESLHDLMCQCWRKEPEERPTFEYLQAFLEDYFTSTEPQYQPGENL
Chain of IGF1R (P08069 whole entry, looked up): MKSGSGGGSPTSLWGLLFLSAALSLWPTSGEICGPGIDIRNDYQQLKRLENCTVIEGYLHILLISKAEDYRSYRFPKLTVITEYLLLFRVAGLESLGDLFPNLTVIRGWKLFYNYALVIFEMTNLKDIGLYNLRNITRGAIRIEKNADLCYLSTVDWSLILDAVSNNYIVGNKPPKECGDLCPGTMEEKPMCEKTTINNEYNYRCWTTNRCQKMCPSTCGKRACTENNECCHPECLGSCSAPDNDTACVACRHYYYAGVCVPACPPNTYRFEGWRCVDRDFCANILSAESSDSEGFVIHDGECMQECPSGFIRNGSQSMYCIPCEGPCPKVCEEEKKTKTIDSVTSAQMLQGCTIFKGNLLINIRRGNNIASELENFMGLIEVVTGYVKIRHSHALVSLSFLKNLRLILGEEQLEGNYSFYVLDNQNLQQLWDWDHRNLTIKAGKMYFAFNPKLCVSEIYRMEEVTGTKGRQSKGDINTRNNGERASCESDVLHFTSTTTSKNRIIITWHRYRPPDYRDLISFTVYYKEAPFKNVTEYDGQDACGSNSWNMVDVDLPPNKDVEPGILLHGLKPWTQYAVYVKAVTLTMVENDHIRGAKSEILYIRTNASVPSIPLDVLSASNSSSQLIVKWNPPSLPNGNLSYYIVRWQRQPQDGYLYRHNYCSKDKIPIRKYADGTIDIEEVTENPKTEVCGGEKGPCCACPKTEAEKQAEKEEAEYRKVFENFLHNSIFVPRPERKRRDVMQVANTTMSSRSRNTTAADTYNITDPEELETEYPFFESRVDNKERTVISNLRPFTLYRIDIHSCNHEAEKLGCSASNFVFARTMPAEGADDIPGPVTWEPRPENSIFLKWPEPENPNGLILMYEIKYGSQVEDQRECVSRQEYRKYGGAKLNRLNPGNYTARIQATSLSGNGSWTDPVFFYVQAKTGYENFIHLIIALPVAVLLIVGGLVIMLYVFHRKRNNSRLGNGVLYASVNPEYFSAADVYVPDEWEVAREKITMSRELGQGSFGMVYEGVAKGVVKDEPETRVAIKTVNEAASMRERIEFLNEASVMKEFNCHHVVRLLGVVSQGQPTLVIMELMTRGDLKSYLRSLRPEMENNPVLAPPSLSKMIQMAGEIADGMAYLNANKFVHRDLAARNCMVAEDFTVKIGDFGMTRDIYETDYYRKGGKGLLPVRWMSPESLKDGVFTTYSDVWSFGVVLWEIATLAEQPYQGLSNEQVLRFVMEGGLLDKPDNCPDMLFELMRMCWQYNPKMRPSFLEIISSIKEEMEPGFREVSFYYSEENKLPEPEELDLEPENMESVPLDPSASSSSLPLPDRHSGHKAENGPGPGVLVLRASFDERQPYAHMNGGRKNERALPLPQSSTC

For `COc1ccc(-c2ccc3c(N4CCOC[C@@H]4C)nc(N4CCOC[C@@H]4C)nc3n2)cc1CO` [AZD8055], the “apparent dissociation constant (-log10 M)” value was < 6 at ROCK2; < 6 on CHEK2; 6.57 on PIK3CD (setting [1]); < 6 on YES1; < 6 on PIM2; < 6 on PDGFRB. The “apparent dissociation constant (-log10 M)” value on IGF1R, at SRC and on NUAK1 was < 6 throughout.

On to `CCNC(=O)Nc1ccc(-c2nc(N3CCOC[C@@H]3C)c3c(n2)C(C)(C)S(=O)(=O)C3)cc1` [CZ415], for which the “apparent dissociation constant (-log10 M)” value is < 6 on CDK9; < 6 at CHEK2; < 6 on ADCK4; < 6 at PIK3CD (affinity matrix / lysate: Kinobeads, mixed HEK293/K-562/placenta lysate); < 6 on PIK3CD (setting [1]); < 6 at CSNK1G1. Besides, the “apparent dissociation constant (-log10 M)” value on YES1, on DYRK1B, on SIK1, at PIM2, on PDGFRB and at IGF1R was < 6 throughout. For the same compound, the “apparent dissociation constant (-log10 M)” value on MAPK15, on CAMK1, on PRKACA, at SGK1, at EIF2AK2 and on ACVRL1 was < 6 throughout. Further, the “apparent dissociation constant (-log10 M)” value at EIF2AK3, at SRC, on RNASEL, on NUAK1 and at MAP3K10 was < 6 in each case.
